According to patent US7118895B2, “Process for producing aglycon by using diglycosidase and flavor-improved food containing the aglycon and converting agent to be used in the process” (Amano Enzyme Inc., priority 2000, dated 2006):

System: Crude diglycosidase
Assay: Examination of temperature in the conversion into isoflavone aglycons by diglycosidase using soybean materials
Format: biochemical, Penicillium multicolor IAM7153
Set-up: Decomposition efficiency of glycitin family in roasted soy flour / Decomposition efficiency of daidzin family in roasted soy flour / Decomposition efficiency of genistin family in soymilk / Decomposition efficiency of daidzin family in soymilk / Decomposition efficiency of glycitin family in defatted soybean / Decomposition efficiency of daidzin family in defatted soybean: concentration or dose not given beside the values
Protocol: Into 400 μL of 20 mM acetate buffer of pH 4.0 was suspended 50 mg of each of various soybean materials (roasted soy flour (manufactured by Fuji Shokuryo K.K.), soymilk (manufactured by Gitoh Shokuhin K.K.), defatted soybean (manufactured by Fuji Seiyu K.K.), concentrated soybean protein (manufactured by Fuji Seiyu K.K.)), whereby a substrate solution was prepared. Crude diglycosidase was diluted with 20 mM acetate buffer of pH 4.0 to be the glycosidase activity of 1.88 AU/mL. Fifty μL of the enzyme solution was mixed with the substrate solution and the whole was reacted at 80, 65, 55, 45, 37, or 30° C. at the total volume of 500 μL. To the reaction mixture was added 700 μL of ethanol after 0, 1, 3, and 6 hours of the reaction. After stirring and ultrasonication, the mixture was subjected to centrifugal separation at 15,000 rpm and 4° C. for 10 minutes. The supernatant was filtered through a filter and the existence of isoflavone glycosides and aglycon isoflavones contained in the reaction mixture was detected by HLPC.

[1] = 30 °C, heat treatment of enzyme: no, 0 h
[2] = 30 °C, heat treatment of enzyme: no, 1 h
[3] = 30 °C, heat treatment of enzyme: no, 3 h
[4] = 30 °C, heat treatment of enzyme: no, 6 h
[5] = 30 °C, heat treatment of enzyme: yes, 6 h
[6] = 45 °C, heat treatment of enzyme: no, 0 h
[7] = 45 °C, heat treatment of enzyme: no, 1 h
[8] = 45 °C, heat treatment of enzyme: no, 3 h
[9] = 45 °C, heat treatment of enzyme: no, 6 h
[10] = 45 °C, heat treatment of enzyme: yes, 6 h
[11] = 55 °C, heat treatment of enzyme: no, 0 h
[12] = 55 °C, heat treatment of enzyme: no, 1 h
[13] = 55 °C, heat treatment of enzyme: no, 3 h
[14] = 55 °C, heat treatment of enzyme: no, 6 h
[15] = 55 °C, heat treatment of enzyme: yes, 6 h
[16] = 65 °C, heat treatment of enzyme: no, 0 h
[17] = 65 °C, heat treatment of enzyme: no, 1 h
[18] = 65 °C, heat treatment of enzyme: no, 3 h
[19] = 65 °C, heat treatment of enzyme: no, 6 h
[20] = 65 °C, heat treatment of enzyme: yes, 6 h
[21] = 80 °C, heat treatment of enzyme: no, 0 h
[22] = 80 °C, heat treatment of enzyme: no, 1 h
[23] = 80 °C, heat treatment of enzyme: no, 3 h
[24] = 80 °C, heat treatment of enzyme: no, 6 h
[25] = 80 °C, heat treatment of enzyme: yes, 6 h

Decomposition efficiency of glycitin family in defatted soybean (30° C., heat treatment of enzyme no, reaction time 0 h): not detected
Decomposition efficiency of glycitin family in defatted soybean (30° C., heat treatment of enzyme no, reaction time 1 h): not detected
Decomposition efficiency of glycitin family in defatted soybean (30° C., heat treatment of enzyme no, reaction time 3 h): not detected
Decomposition efficiency of glycitin family in defatted soybean (30° C., heat treatment of enzyme no, reaction time 6 h): not detected
Decomposition efficiency of glycitin family in defatted soybean (30° C., heat treatment of enzyme yes, reaction time 6 h): not detected
Decomposition efficiency of glycitin family in concentrated soybean protein [1]: 36.0%
Decomposition efficiency of glycitin family in roasted soy flour [1]: 38.7%
Decomposition efficiency of glycitin family in soymilk [1]: not detected
Decomposition efficiency of glycitin family in concentrated soybean protein [2]: 35.0%
Decomposition efficiency of glycitin family in roasted soy flour [2]: 33.8%
Decomposition efficiency of glycitin family in soymilk [2]: not detected
Decomposition efficiency of glycitin family in concentrated soybean protein [3]: 33.4%
Decomposition efficiency of glycitin family in roasted soy flour [3]: 33.2%
Decomposition efficiency of glycitin family in soymilk [3]: not detected
Decomposition efficiency of glycitin family in concentrated soybean protein [4]: 30.8%
Decomposition efficiency of glycitin family in roasted soy flour [4]: 19.1%
Decomposition efficiency of glycitin family in soymilk [4]: not detected
Decomposition efficiency of glycitin family in concentrated soybean protein [5]: 35.4%
Decomposition efficiency of glycitin family in roasted soy flour [5]: 37.5%
Decomposition efficiency of glycitin family in soymilk [5]: not detected
Decomposition efficiency of glycitin family in defatted soybean (45° C., heat treatment of enzyme no, reaction time 0 h): not detected
Decomposition efficiency of glycitin family in defatted soybean (45° C., heat treatment of enzyme no, reaction time 1 h): not detected
Decomposition efficiency of glycitin family in defatted soybean (45° C., heat treatment of enzyme no, reaction time 3 h): not detected
Decomposition efficiency of glycitin family in defatted soybean (45° C., heat treatment of enzyme no, reaction time 6 h): not detected
Decomposition efficiency of glycitin family in defatted soybean (45° C., heat treatment of enzyme yes, reaction time 6 h): not detected
Decomposition efficiency of glycitin family in concentrated soybean protein [6]: 35.9%
Decomposition efficiency of glycitin family in roasted soy flour [6]: 38.3%
Decomposition efficiency of glycitin family in soymilk [6]: not detected
Decomposition efficiency of glycitin family in concentrated soybean protein [7]: 34.1%
Decomposition efficiency of glycitin family in roasted soy flour [7]: 27.4%
Decomposition efficiency of glycitin family in soymilk [7]: not detected
Decomposition efficiency of glycitin family in concentrated soybean protein [8]: 31.0%
Decomposition efficiency of glycitin family in roasted soy flour [8]: 20.3%
Decomposition efficiency of glycitin family in soymilk [8]: not detected
Decomposition efficiency of glycitin family in concentrated soybean protein [9]: 27.1%
Decomposition efficiency of glycitin family in roasted soy flour [9]: 9.1%
Decomposition efficiency of glycitin family in soymilk [9]: not detected
Decomposition efficiency of glycitin family in concentrated soybean protein [10]: 35.0%
Decomposition efficiency of glycitin family in roasted soy flour [10]: 36.8%
Decomposition efficiency of glycitin family in soymilk [10]: not detected
Decomposition efficiency of glycitin family in defatted soybean (55° C., heat treatment of enzyme no, reaction time 0 h): not detected
Decomposition efficiency of glycitin family in defatted soybean (55° C., heat treatment of enzyme no, reaction time 1 h): not detected
Decomposition efficiency of glycitin family in defatted soybean (55° C., heat treatment of enzyme no, reaction time 3 h): not detected
Decomposition efficiency of glycitin family in defatted soybean (55° C., heat treatment of enzyme no, reaction time 6 h): not detected
Decomposition efficiency of glycitin family in defatted soybean (55° C., heat treatment of enzyme yes, reaction time 6 h): not detected
Decomposition efficiency of glycitin family in concentrated soybean protein [11]: 36.0%
Decomposition efficiency of glycitin family in roasted soy flour [11]: 39.1%
Decomposition efficiency of glycitin family in soymilk [11]: not detected
Decomposition efficiency of glycitin family in concentrated soybean protein [12]: 33.9%
Decomposition efficiency of glycitin family in roasted soy flour [12]: 30.1%
Decomposition efficiency of glycitin family in soymilk [12]: not detected
Decomposition efficiency of glycitin family in concentrated soybean protein [13]: 29.8%
Decomposition efficiency of glycitin family in roasted soy flour [13]: 12.1%
Decomposition efficiency of glycitin family in soymilk [13]: not detected
Decomposition efficiency of glycitin family in concentrated soybean protein [14]: 26.8%
Decomposition efficiency of glycitin family in roasted soy flour [14]: 6.0%
Decomposition efficiency of glycitin family in soymilk [14]: not detected
Decomposition efficiency of glycitin family in concentrated soybean protein [15]: 35.3%
Decomposition efficiency of glycitin family in roasted soy flour [15]: 37.3%
Decomposition efficiency of glycitin family in soymilk [15]: not detected
Decomposition efficiency of glycitin family in defatted soybean (65° C., heat treatment of enzyme no, reaction time 0 h): not detected
Decomposition efficiency of glycitin family in defatted soybean (65° C., heat treatment of enzyme no, reaction time 1 h): not detected
Decomposition efficiency of glycitin family in defatted soybean (65° C., heat treatment of enzyme no, reaction time 3 h): not detected
Decomposition efficiency of glycitin family in defatted soybean (65° C., heat treatment of enzyme no, reaction time 6 h): not detected
Decomposition efficiency of glycitin family in defatted soybean (65° C., heat treatment of enzyme yes, reaction time 6 h): not detected
Decomposition efficiency of glycitin family in concentrated soybean protein [16]: 36.0%
Decomposition efficiency of glycitin family in roasted soy flour [16]: 38.7%
Decomposition efficiency of glycitin family in soymilk [16]: not detected
Decomposition efficiency of glycitin family in concentrated soybean protein [17]: 35.7%
Decomposition efficiency of glycitin family in roasted soy flour [17]: 34.5%
Decomposition efficiency of glycitin family in soymilk [17]: not detected
Decomposition efficiency of glycitin family in concentrated soybean protein [18]: 35.5%
Decomposition efficiency of glycitin family in roasted soy flour [18]: 31.0%
Decomposition efficiency of glycitin family in soymilk [18]: not detected
Decomposition efficiency of glycitin family in concentrated soybean protein [19]: 35.8%
Decomposition efficiency of glycitin family in roasted soy flour [19]: 29.0%
Decomposition efficiency of glycitin family in soymilk [19]: not detected
Decomposition efficiency of glycitin family in concentrated soybean protein [20]: 35.7%
Decomposition efficiency of glycitin family in roasted soy flour [20]: 39.3%
Decomposition efficiency of glycitin family in soymilk [20]: not detected
Decomposition efficiency of glycitin family in defatted soybean (80° C., heat treatment of enzyme no, reaction time 0 h): not detected
Decomposition efficiency of glycitin family in defatted soybean (80° C., heat treatment of enzyme no, reaction time 1 h): not detected
Decomposition efficiency of glycitin family in defatted soybean (80° C., heat treatment of enzyme no, reaction time 3 h): not detected
Decomposition efficiency of glycitin family in defatted soybean (80° C., heat treatment of enzyme no, reaction time 6 h): not detected
Decomposition efficiency of glycitin family in defatted soybean (80° C., heat treatment of enzyme yes, reaction time 6 h): not detected
Decomposition efficiency of glycitin family in concentrated soybean protein [21]: 35.9%
Decomposition efficiency of glycitin family in roasted soy flour [21]: 38.3%
Decomposition efficiency of glycitin family in soymilk [21]: not detected
Decomposition efficiency of glycitin family in concentrated soybean protein [22]: 36.0%
Decomposition efficiency of glycitin family in roasted soy flour [22]: 40.1%
Decomposition efficiency of glycitin family in soymilk [22]: not detected
Decomposition efficiency of glycitin family in concentrated soybean protein [23]: 35.7%
Decomposition efficiency of glycitin family in roasted soy flour [23]: 38.4%
Decomposition efficiency of glycitin family in soymilk [23]: not detected
Decomposition efficiency of glycitin family in concentrated soybean protein [24]: 35.2%
Decomposition efficiency of glycitin family in roasted soy flour [24]: 35.7%
Decomposition efficiency of glycitin family in soymilk [24]: not detected
Decomposition efficiency of glycitin family in concentrated soybean protein [25]: 34.8%
Decomposition efficiency of glycitin family in roasted soy flour [25]: 39.4%
Decomposition efficiency of glycitin family in soymilk [25]: not detected
Structure (SMILES): COc1cc2c(=O)c(-c3ccc(O)cc3)coc2cc1O[C@@H]1O[C@H](COC(C)=O)[C@@H](O)[C@H](O)[C@H]1O [acetylglycitin, 6″-O-acetylglycitin]
